Experimental data: patent publication US20240115654A1, “INTRAVENOUS ADMINISTRATION OF ENGINEERED ANTIMICROBIAL AMPHIPHILIC PEPTIDES” (priority 2021, published 2024)
Peptide text beside a SMILES is read from it.

Conditions: Cohort 4: 0.5 mg/kg IV 2-hr infusion (N = 6)
From the text: All subjects who met eligibility criteria were confined to the clinical research unit from […] through Day 3. At admission, physical examination, vital signs, 12 lead ECG and weight were obtained, medical and medication history were updated if necessary, safety blood tests (hematology and chemistry), urinalysis, urine drug screen and an alcohol breath test were repeated and a urine pregnancy test was done for women of childbearing potential.
At each dose level, there were 2 sentinel subjects, (1 active, 1 placebo), who were dosed at least 48 hours in advance of the other subjects in their respective group. Following review of safety data, including physical examination, vital signs, and review of adverse events from the first 2 subjects, enrolment in the cohort continued.
A 12-lead ECG was performed on Day 1, within 60 minutes of infusion start (in triplicate), mid-way through the infusion, at the completion of the infusion, 30 minutes after completion of the infusion and at various timepoints following the end of the infusion.
Vital signs were recorded within 60 minutes pre-dose, at the mid-point of the infusion and post dose vitals were assessed at completion of the infusion, 0.5, 1, 2, 3, 4, 6, 9, 12, 24 and 48 hours post dose, after at least 3 minutes of rest in supine position.
Subjects returned to the study center 7 days after dosing, for the termination visit. A full physical examination, vital signs and weight were obtained, concomitant medications were updated if necessary, safety blood specimens (haematology and chemistry, PT and aPTT) and urine were collected for urinalysis and urine drug screening. A serum pregnancy test was done for women of childbearing potential and a 12-lead ECG was performed.
In this study dose limiting toxicity (DLT) was defined as any drug related ≥Grade 3 AEs occurring despite optimal therapeutic interventions (which included but were not limited to allergic/hypersensitivity reactions, dermatological reactions/infusion site reactions, haematological toxicities such as neutropenia, thrombocytopenia and anaemia and clinical chemistry abnormalities) experienced up to Day 7 (Termination Visit).
(§1) All subjects who received any amount of study drug were included in the safety analysis (Safety population).
The study was a double blinded, randomized, placebo-controlled study. The placebo administered was 0.9% sodium chloride.
On Day 1 (day of dosing), subjects were randomly assigned either peptide IV or Placebo IV. At each dose level, there were 2 sentinel subjects, (1 active, 1 placebo), who were dosed at least 48 hours in advance of the other subjects in their respective group. Following review of safety data, including physical examination, vital signs, and review of adverse events from the first 2 subjects, enrolment in the cohort continued. All subjects who met eligibility criteria were confined to the clinical research unit from Day −2 through Day 3. At admission, physical examination, vital signs, 12 lead ECG and weight were obtained, medical and medication history were updated if necessary, safety blood tests (hematology and chemistry), urinalysis, urine drug screen and an alcohol breath test were repeated and a urine pregnancy test was done for women of childbearing potential.
as §1

CC(C)[C@H](NC(=O)[C@H](Cc1c[nH]c2ccccc12)NC(=O)[C@H](CCCNC(=N)N)NC(=O)[C@H](CCCNC(=N)N)NC(=O)[C@@H](NC(=O)[C@@H](NC(=O)[C@H](CCCNC(=N)N)NC(=O)[C@@H](NC(=O)[C@@H](NC(=O)[C@H](CCCNC(=N)N)NC(=O)[C@H](CCCNC(=N)N)NC(=O)[C@H](Cc1c[nH]c2ccccc12)NC(=O)[C@@H](NC(=O)[C@H](CCCNC(=N)N)NC(=O)[C@H](CCCNC(=N)N)NC(=O)[C@@H](NC(=O)[C@H](CCCNC(=N)N)NC(=O)[C@H](CCCNC(=N)N)NC(=O)[C@@H](NC(=O)[C@H](Cc1c[nH]c2ccccc12)NC(=O)[C@H](CCCNC(=N)N)NC(=O)[C@@H](N)CCCNC(=N)N)C(C)C)C(C)C)C(C)C)C(C)C)C(C)C)C(C)C)C(C)C)C(=O)N[C@@H](CCCNC(=N)N)C(=O)N[C@@H](CCCNC(=N)N)C(N)=O [SEQ ID NO: 1] (H-RRWVRRVRRVWRRVVRVVRRWVRR-NH2)
Number of Participants Reporting at least: One Dose-Limiting Toxicity, n (%): 0 | Number of Participants Reporting at least: One Related TEAE, n (%): 3 (50.0%) | Number of Participants Reporting at least: One Serious TEAE, n (%): 0 | Number of Participants Reporting at least: One TEAE Leading to Study Drug Discontinuation, n (%): 0 | Number of Participants Reporting at least: One TEAE with Common Terminology Criteria for Adverse Events (CTCAE) Toxicity ≥ Grade 3, n (%): 0 | Number of Participants Reporting at least: One TEAE, n (%): 6 (100%) | One Related TEAE, m: 4 | One TEAE, m: 15 | Participants With At Least 1 TEAE, n (%): 6 (100%) | Participants With At Least 1 TEAE, occurrences m: 15 | Participants With At Least 1 Treatment-Related TEAE, n (%): 3 (50.0%) | Participants With At Least 1 Treatment-Related TEAE, occurrences m: 4 | TEAE Severity Grade 1, m: 12 | TEAE Severity Grade 1, n (%): 6 (100%) | TEAE Severity Grade 2, m: 3 | TEAE Severity Grade 2, n (%): 2 (33.3%) | TEAE by system organ class: Blood and Lymphatic System Disorders, participants n (%): 0 | TEAE by system organ class: Gastrointestinal Disorders, occurrences m: 2 | TEAE by system organ class: Gastrointestinal Disorders, participants n (%): 1 (16.7%) | TEAE by system organ class: General Disorders and Administration Site Conditions, occurrences m: 2 | TEAE by system organ class: General Disorders and Administration Site Conditions, participants n (%): 2 (33.3%) | TEAE by system organ class: Infections and Infestations, occurrences m: 1 | TEAE by system organ class: Infections and Infestations, participants n (%): 1 (16.7%) | TEAE by system organ class: Injury, Poisoning, and Procedural Complications, occurrences m: 4 | TEAE by system organ class: Injury, Poisoning, and Procedural Complications, participants n (%): 3 (50.0%) | TEAE by system organ class: Musculoskeletal and Connective Tissue Disorders, occurrences m: 2 | TEAE by system organ class: Musculoskeletal and Connective Tissue Disorders, participants n (%): 2 (33.3%) | TEAE by system organ class: Nervous System Disorders, occurrences m: 1 | TEAE by system organ class: Nervous System Disorders, participants n (%): 1 (16.7%) | TEAE by system organ class: Respiratory, Thoracic, and Mediastinal disorders, participants n (%): 0 | TEAE by system organ class: Skin and Subcutaneous Tissue Disorders, occurrences m: 3 | TEAE by system organ class: Skin and Subcutaneous Tissue Disorders, participants n (%): 2 (33.3%) | TEAE by system organ class: Vascular Disorders, participants n (%): 0 | TEAE severity Grade 1, occurrences m: 12 | TEAE severity Grade 1, participants n (%): 6 (100%) | TEAE severity Grade 2, occurrences m: 3 | TEAE severity Grade 2, participants n (%): 2 (33.3%) | TEAE severity Grade 3, participants n (%): 0 | TEAE severity Grade 4, participants n (%): 0 | TEAE severity Grade 5, participants n (%): 0 | Treatment-related TEAE: Abdominal distension, occurrences m: 1 | Treatment-related TEAE: Abdominal distension, participants n (%): 1 (16.7%) | Treatment-related TEAE: Blood and Lymphatic System Disorders, participants n (%): 0 | Treatment-related TEAE: Constipation, participants n (%): 0 | Treatment-related TEAE: Diarrhea, occurrences m: 1 | Treatment-related TEAE: Diarrhea, participants n (%): 1 (16.7%) | Treatment-related TEAE: Dizziness, participants n (%): 0 | Treatment-related TEAE: Feeling hot, participants n (%): 0 | Treatment-related TEAE: Gastrointestinal Disorders, occurrences m: 2 | Treatment-related TEAE: Gastrointestinal Disorders, participants n (%): 1 (16.7%) | Treatment-related TEAE: General Disorders and Administration Site Conditions, occurrences m: 2 | Treatment-related TEAE: General Disorders and Administration Site Conditions, participants n (%): 2 (33.3%) | Treatment-related TEAE: Headache, participants n (%): 0 | Treatment-related TEAE: Infusion related reaction, participants n (%): 0 | Treatment-related TEAE: Infusion site discomfort, participants n (%): 0 | Treatment-related TEAE: Infusion site pain, participants n (%): 0 | Treatment-related TEAE: Infusion site reaction, occurrences m: 1 | Treatment-related TEAE: Infusion site reaction, participants n (%): 1 (16.7%) | Treatment-related TEAE: Infusion site swelling, participants n (%): 0 | Treatment-related TEAE: Injury, Poisoning, and Procedural Complications, participants n (%): 0 | Treatment-related TEAE: Macule, participants n (%): 0 | Treatment-related TEAE: Musculoskeletal and Connective Tissue Disorders, participants n (%): 0 | Treatment-related TEAE: Myalgia, participants n (%): 0 | Treatment-related TEAE: Nervous system disorders, participants n (%): 0 | Treatment-related TEAE: Oropharyngeal pain, participants n (%): 0 | Treatment-related TEAE: Orthostatic hypotension, participants n (%): 0 | Treatment-related TEAE: Phlebitis, participants n (%): 0 | Treatment-related TEAE: Respiratory, Thoracic, and Mediastinal disorders, participants n (%): 0
